Columns and labels:
[1] = biological target: ligand binding domain of human FXR (Homo sapiens (Human), UniProt Q96RI1); experiment: FXR ligand binding assay (LanthaScreen TR-FRET, SRC2-2 peptide recruitment); conditions: for pEC50: -log EC50, concentration required to produce 50% activation; for Emax: extent of activation relative to GW4064, read-out: % Efficacy
Protocol: The affinity of FXR ligands for the ligand binding domain of FXR was determined using a commercially available human FXR ligand binding assay (LanthaScreen, Thermofisher Cat # PV4833). […] Binding of FXR ligands to the FXR ligand binding domain promotes binding of the fluorescein-labelled SRC2-2 peptide. This causes a FRET signal between the terbium-labelled anti-GST antibody and the fluorescein-labelled SRC peptide which are both bound to the FXR ligand binding domain.
Test compounds are dissolved in DMSO and a 3-fold serial dilution series is generated, then further diluted into assay buffer. The compounds are mixed with 5 nM GST-tagged FXR ligand binding domain, 5 nM Tb-labelled anti-GST antibody and 500 nM fluorescein-labelled SRC2-2 peptide in a pH7.4 buffer. The reaction is incubated at room temperature for 1 hour, then the FRET signal is measured as the ratio of the 520 nm/495 nm emission following excitation at 340 nm. The change in FRET signal is plotted against the test article concentration and fit to a 3-parameter logistical equation. The concentration required to produce 50% activation is expressed as pEC50 (−log EC50), and the extent of activation is expressed relative to GW4064 as % activation.

[2] = biological target: human Farnesoid X receptor ligand-binding domain/Gal4 DNA binding domain chimera (Homo sapiens (Human), UniProt Q96RI1); experiment: Cell-based assay of FXR activation (FXR-UAS-bla HEK 293T beta-lactamase reporter); conditions: cellular FXR beta-lactamase reporter assay; for Emax: HEK-293T, extent of activation relative to GW4064, read-out: % Efficacy; for EC50: FXR-UAS-bla HEK 293T cells, 16 h, pEC50 = -log EC50
Protocol: FXR activation was measured using a cell line and procedure obtained from Life Technologies (Cat # K1691). FXR-UAS-bla HEK 293T cells contain a human Farnesoid X receptor ligand-binding domain/Gal4 DNA binding domain chimera stably integrated into the CellSensor® UAS-bla HEK 293T cell line. The CellSensor® UAS-bla HEK 293T contains a beta-lactamase reporter gene under control of a UAS response element stably integrated into HEK 293T cells. Activation of FXR by bound ligands results in transcriptional activation of the beta-lactamase reporter gene, which is detected via assay of beta-lactamase activity.
Cells are harvested and diluted into assay medium containing phenol red-free DMEM supplemented with 2% Charcoal-stripped FBS, pyruvate, non-essential amino acids. Cells are then transferred to a 384 well assay plate. Test compounds are dissolved in DMSO and a 3-fold serial dilution series is generated, then further diluted into assay medium. Compounds in assay medium are added to cells in the 384 well plate and allowed to incubate 16 h at 37 C in the presence of 5% CO2.
A FRET-based […] is loaded into cells as its acetomethoxy ester. Intracellular esterases liberate free CCF4, a cephalosporin core linking 7-hydroxycoumarin to fluorescein. In the presence of beta-lactamase activity produced in the presence of FXR agonists, cleavage of CCF4 spatially separates the two dyes and disrupts FRET, so that exciting the coumarin at 409 nm now produces a blue fluorescence signal at 447 nm. The change in FRET signal is plotted against the test compound concentration and fit to a 3-parameter logistical equation. The concentration required to produce 50% activation is expressed as pEC50 (−log EC50), and the extent of activation is expressed relative to GW4064 as % activation.

Chain of ligand binding domain of human FXR (Q96RI1 262-486): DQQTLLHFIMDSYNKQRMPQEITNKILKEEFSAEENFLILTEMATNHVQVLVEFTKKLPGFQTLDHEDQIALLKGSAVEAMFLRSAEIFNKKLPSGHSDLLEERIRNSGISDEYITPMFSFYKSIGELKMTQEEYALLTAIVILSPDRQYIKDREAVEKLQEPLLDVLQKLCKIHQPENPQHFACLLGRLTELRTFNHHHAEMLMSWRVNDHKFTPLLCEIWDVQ
Chain of human Farnesoid X receptor ligand-binding domain/Gal4 DNA binding domain chimera (Q96RI1 262-486, stated change not applied): as the sequence (Q96RI1 262-486) above
Chain of human Farnesoid X receptor ligand-binding domain/Gal4 DNA binding domain chimera (P04386 1-147 partner): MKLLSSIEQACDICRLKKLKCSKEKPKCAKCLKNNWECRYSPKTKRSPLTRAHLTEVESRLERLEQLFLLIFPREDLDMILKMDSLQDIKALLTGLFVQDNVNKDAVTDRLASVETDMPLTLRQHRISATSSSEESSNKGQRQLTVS

Structure (SMILES) | pEC50 [1] | Emax [1] [%] | Emax [2] [%] | EC50 [2] [nM]
O=C(O)[C@@H]1CCc2cc(N3C[C@@H]4C[C@H]3C[C@H]4OCc3c(-c4c(Cl)cccc4Cl)noc3C3CC3)ccc2C1 (single isomer, unassigned) [Compound I-137] | 8 | 132 | 106 | 10
O=C(O)[C@H]1CCc2cc(N3C[C@@H]4C[C@H]3C[C@H]4OCc3c(-c4c(Cl)cccc4Cl)noc3C3CC3)ccc2C1 (single isomer, unassigned) [Compound I-138] | 7.6 | 132 | 106 | 15.8
O=C(O)c1cc(F)c2nc(N3C[C@@H]4C[C@H]3C[C@H]4OC(=O)c3c(-c4c(Cl)cccc4Cl)noc3C3CC3)sc2c1 [Compound I-1, 2-[(1S,4S,5R)-5-[5-cyclopropyl-3-(2,6-dichlorophenyl)-1,2-oxazole-4-carbonyloxy]-2-azabicyclo[2.2.1]heptan-2-yl]-4-fluoro-1,3-benzothiazole-6-carboxylic Acid] | 7.4 | 148 | 126 | 10
O=C(O)c1ccc2nc(N3C[C@@H]4C[C@H]3C[C@H]4OC(=O)c3c(-c4c(Cl)cccc4Cl)noc3C3CC3)sc2c1 [Compound I-2, 2-[(1S,4S,5R)-5-[5-cyclopropyl-3-(2,6-dichlorophenyl)-1,2-oxazole-4-carbonyloxy]-2-azabicyclo[2.2.1]heptan-2-yl]-1,3-benzothiazole-6-carboxylic acid] | 7.3 | 138 | 120 | 10
Cc1cc(C(=O)O)cc2sc(N3C[C@@H]4C[C@H]3C[C@H]4OC(=O)c3c(-c4c(Cl)cccc4Cl)noc3C3CC3)nc12 [Compound I-3, 2-[(1S,4S,5R)-5-[5-cyclopropyl-3-(2,6-dichlorophenyl)-1,2-oxazole-4-carbonyloxy]-2-azabicyclo[2.2.1]heptan-2-yl]-4-methyl-1,3-benzothiazole-6-carboxylic acid] | 7.6 | 153 | 123 | 5.01
O=C(O)c1cc(C2CC2)c2nc(N3C[C@@H]4C[C@H]3C[C@H]4OC(=O)c3c(-c4c(Cl)cccc4Cl)noc3C3CC3)sc2c1 [Compound I-4, 4-cyclopropyl-2-[(1S,4S,5R)-5-[5-cyclopropyl-3-(2,6-dichlorophenyl)-1,2-oxazole-4-carbonyloxy]-2-azabicyclo[2.2.1]heptan-2-yl]-1,3-benzothiazole-6-carboxylic acid] | 7.3 | 166 | 112 | 3.16
O=C(O)c1cc(C(F)(F)F)c2nc(N3C[C@@H]4C[C@H]3C[C@H]4OC(=O)c3c(-c4c(Cl)cccc4Cl)noc3C3CC3)sc2c1 [Compound I-5, 2-[(1S,4S,5R)-5-[5-cyclopropyl-3-(2,6-dichlorophenyl)-1,2-oxazole-4-carbonyloxy]-2-azabicyclo[2.2.1]heptan-2-yl]-4-(trifluoromethyl)-1,3-benzothiazole-6-carboxylic acid] | 7.2 | 139 | 102 | 39.8
O=C(O)c1cc(OC(F)(F)F)c2nc(N3C[C@@H]4C[C@H]3C[C@H]4OC(=O)c3c(-c4c(Cl)cccc4Cl)noc3C3CC3)sc2c1 [Compound I-6] | 7.7 | 173 | 112 | 3.98
O=C(O)c1cc(OCC(F)(F)F)c2nc(N3C[C@@H]4C[C@H]3C[C@H]4OC(=O)c3c(-c4c(Cl)cccc4Cl)noc3C3CC3)sc2c1 [Compound I-7, 2-[(1S,4S,5R)-5-[5-cyclopropyl-3-(2,6-dichlorophenyl)-1,2-oxazole-4-carbonyloxy]-2-azabicyclo[2.2.1]heptan-2-yl]-4-(2,2,2-trifluoroethoxy)-1,3-benzothiazole-6-carboxylic acid] | 7.4 | 162 | 119 | 5.01
CCOc1cc(C(=O)O)cc2sc(N3C[C@@H]4C[C@H]3C[C@H]4OC(=O)c3c(-c4c(Cl)cccc4Cl)noc3C3CC3)nc12 [Compound I-8, 2-[(1S,4S,5R)-5-[5-cyclopropyl-3-(2,6-dichlorophenyl)-1,2-oxazole-4-carbonyloxy]-2-azabicyclo[2.2.1]heptan-2-yl]-4-ethoxy-1,3-benzothiazole-6-carboxylic acid] | 7.6 | 137 | 106 | 2.51
O=C(O)c1cc(OC(F)(F)F)c2nc(N3C[C@@H]4C[C@H]3C[C@H]4OC(=O)c3c(-c4ccccc4C(F)(F)F)noc3C3CC3)sc2c1 [Compound I-9, 2-[(1S,4S,5R)-5-{5-cyclopropyl-3-[2-(trifluoromethyl)phenyl]-1,2-oxazole-4-carbonyloxy}-2-azabicyclo[2.2.1]heptan-2-yl]-4-(trifluoromethoxy)-1,3-benzothiazole-6-carboxylic Acid] | 7.1 | 172 | 107 | 5.01
O=C(O)c1cc(F)c2nc(N3C[C@@H]4C[C@H]3C[C@H]4OC(=O)c3c(-c4c(Cl)cccc4Cl)noc3C3(F)CC3)sc2c1 [Compound I-10, 2-[(1S,4S,5R)-5-[3-(2,6-dichlorophenyl)-5-(1-fluorocyclopropyl)-1,2-oxazole-4-carbonyloxy]-2-azabicyclo[2.2.1]heptan-2-yl]-4-fluoro-1,3-benzothiazole-6-carboxylic Acid] | 7 | 145 | 111 | 25.1
O=C(O)c1cc(F)c2nc(N3C[C@@H]4C[C@H]3C[C@H]4OC(=O)c3c(C45CCC(CC4)CC5)noc3C3CC3)sc2c1 [Compound I-11, 2-[(1S,4S,5R)-5-(3-{bicyclo[2.2.2]octan-1-yl}-5-cyclopropyl-1,2-oxazole-4-carbonyloxy)-2-azabicyclo[2.2.1]heptan-2-yl]-4-fluoro-1,3-benzothiazole-6-carboxylic Acid] | 7.7 | 15 | 28 | 251
O=C(O)c1cc(F)c2nc(N3C[C@@H]4C[C@H]3C[C@H]4OCc3c(-c4c(Cl)cccc4Cl)noc3C3CC3)sc2c1 [Compound I-12, 2-[(1S,4S,5R)-5-{[5-cyclopropyl-3-(2,6-dichlorophenyl)-1,2-oxazol-4-yl]methoxy}-2-azabicyclo[2.2.1]heptan-2-yl]-4-fluoro-1,3-benzothiazole-6-carboxylic Acid] | 9 | 153 | 122 | 0.1
Cc1cc(C(=O)O)cc2sc(N3C[C@@H]4C[C@H]3C[C@H]4OCc3c(-c4c(Cl)cccc4Cl)noc3C3CC3)nc12 [Compound I-13, 2-[(1S,4S,5R)-5-{[5-cyclopropyl-3-(2,6-dichlorophenyl)-1,2-oxazol-4-yl]methoxy}-2-azabicyclo[2.2.1]heptan-2-yl]-4-methyl-1,3-benzothiazole-6-carboxylic acid] | 8.6 | 174 | 116 | 0.158
O=C(O)c1cc(C2CC2)c2nc(N3C[C@@H]4C[C@H]3C[C@H]4OCc3c(-c4c(Cl)cccc4Cl)noc3C3CC3)sc2c1 [Compound I-14, 4-cyclopropyl-2-[(1S,4S,5R)-5-{[5-cyclopropyl-3-(2,6-dichlorophenyl)-1,2-oxazol-4-yl]methoxy}-2-azabicyclo[2.2.1]heptan-2-yl]-1,3-benzothiazole-6-carboxylic acid] | 8.6 | 146 | 111 | 0.1
C[C@H]1[C@H]2C[C@H](C[C@@H]2OCc2c(-c3c(Cl)cccc3Cl)noc2C2CC2)N1c1ccc(C(=O)NS(=O)(=O)C2CCOCC2)cn1 [Compound I-374, 6-[(1R,3S,4R,5S)-5-[[5-cyclopropyl-3-(2,6-dichlorophenyl)-1,2-oxazol-4-yl]methoxy]-3-methyl-2-azabicyclo[2.2.1]heptan-2-yl]-N-(oxane-4-sulfonyl)pyridine-3-carboxamide] | 6 | 48 | – | –
